pEC50: −log10 of the molar value.
Each compound was assayed against mGluR4 (UniProt Q14833) (assay: mGluR4 potentiation assay: increase in response to an EC20 concentration of agonist (species not given)). Details: EC50 for potentiation of mGluR4; table does not state human or rat.
Type: cell-based
How it was run: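 Human mGluR4 was expressed in CHO cells read with a Ca2+-sensitive dye; rat mGluR4 was co-expressed with GIRK in […] read by thallium flux. Potentiation is the rise over agonist-alone response, with EC50 and maximal potentiation from non-linear fits.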
With `C=C(C)Cn1nc(C)c2cc(Nc3n[nH]c4cccnc34)ccc21` [Example 122, N-(3-methyl-1-(2-methylallyl)-1H-indazol-5-yl)-1H-pyrazolo[4,3-b]pyridin-3-amine] the pEC50 was 7.31. Work on `Cn1ncc2c(Cl)cc(Nc3n[nH]c4ccccc34)cc21` [Example 9, N-(4-chloro-1-methyl-1H-indazol-6-yl)-1H-indazol-3-amine] yielded a pEC50 of 7.19. `c1cnc2c(Nc3ccc4[nH]ncc4c3)n[nH]c2c1` [Example 88, N-(1H-indazol-5-yl)-1H-pyrazolo[4,3-b]pyridin-3-amine] was tested, and the pEC50 was 7.14. In the case of `Cn1nc(OCC2CC2(F)F)c2ccc(Nc3n[nH]c4cccnc34)cc21` (stereo not shown) [Example 188, N-[3-[(2,2-difluorocyclopropyl)methoxy]-1-methyl-indazol-6-yl]-1H-pyrazolo[4,3-b]pyridin-3-amine], the pEC50 was 6.95. `Clc1n[nH]c2ccc(Nc3n[nH]c4cccnc34)cc12` [Example 140, N-(3-chloro-1H-indazol-5-yl)-1H-pyrazolo[4,3-b]pyridin-3-amine] was tested, and the pEC50 was 6.34. With `Cc1cc(Cn2cc3ncc(Nc4n[nH]c5nccnc45)cc3n2)no1` [Example 145, N-(2-((5-methylisoxazol-3-yl)methyl)-2H-pyrazolo[4,3-b]pyridin-6-yl)-1H-pyrazolo[3,4-b]pyrazin-3-amine] the pEC50 was < 5.00. With `Cc1nn(C(C)(C)C)c2ccc(Nc3n[nH]c4cccnc34)cc12` [Example 97, N-(1-(tert-butyl)-3-methyl-1H-indazol-5-yl)-1H-pyrazolo[4,3-b]pyridin-3-amine] the pEC50 was 6.24. `Cc1nn(CCN2CCOCC2)c2ccc(Nc3n[nH]c4cccnc34)cc12` [Example 132, N-(3-methyl-1-(2-morpholinoethyl)-1H-indazol-5-yl)-1H-pyrazolo[4,3-b]pyridin-3-amine] was tested, and the pEC50 was 6.48. `CC(C)n1cc2cc(Nc3n[nH]c4cccnc34)cc(Cl)c2n1` [Example 62, N-(7-chloro-2-isopropyl-2H-indazol-5-yl)-1H-pyrazolo[4,3-b]pyridin-3-amine] showed a pEC50 of 6.04. With `Cn1nc(C(=O)N2CCC(F)(F)CC2)c2ccc(Nc3n[nH]c4cccnc34)cc21` [Example 162, (4,4-difluoro-1-piperidyl)-[1-methyl-6-(1H-pyrazolo[4,3-b]pyridin-3-ylamino)indazol-3-yl]methanone] the pEC50 was 6.30. In the case of `Cc1nn(C(C)C)c2cc(Nc3n[nH]c4nccnc34)ccc12` [Example 18, N-(1-isopropyl-3-methyl-1H-indazol-6-yl)-1H-pyrazolo[3,4-b]pyrazin-3-amine], the pEC50 was < 5.00. Compound `Cc1nn(CC(=O)O)c2ccc(Nc3n[nH]c4cccnc34)cc12` [Example 135, 2-(5-((1H-pyrazolo[4,3-b]pyridin-3-yl)amino)-3-methyl-1H-indazol-1-yl)acetic acid] has a pEC50 of 6.08. `CC(C)n1nc(C2CC2)c2ccc(Nc3n[nH]c4nccnc34)cc21` [Example 17, N-(3-cyclopropyl-1-isopropyl-1H-indazol-6-yl)-1H-pyrazolo[3,4-b]pyrazin-3-amine] was tested, and the pEC50 was < 5.00. `Cc1cc(Cn2ncc3ncc(Nc4n[nH]c5cccnc45)cc32)no1` [Example 146, N-(1-((5-methylisoxazol-3-yl)methyl)-1H-pyrazolo[4,3-b]pyridin-6-yl)-1H-pyrazolo[4,3-b]pyridin-3-amine] was tested, and the pEC50 was < 5.00. `CC(C)n1ncc2cc(Nc3n[nH]c4cccnc34)cc(Cl)c21` [Example 58, N-(7-chloro-1-isopropyl-1H-indazol-5-yl)-1H-pyrazolo[4,3-b]pyridin-3-amine] showed a pEC50 of 5.64. `Cc1cc(Cn2nc(C)c3cc(Nc4n[nH]c5nccnc45)ccc32)no1` [Example 69, N-(3-methyl-1-((5-methylisoxazol-3-yl)methyl)-1H-indazol-5-yl)-1H-pyrazolo[3,4-b]pyrazin-3-amine] gave a pEC50 of 6.84. With `Clc1nn(CC2CCC2)c2ccc(Nc3n[nH]c4cccnc34)cc12` [Example 285, N-(3-chloro-1-(cyclobutylmethyl)-1H-indazol-5-yl)-1H-pyrazolo[4,3-b]pyridin-3-amine] the pEC50 was 5.70. For `Cn1ncc2c(Cl)cc(Nc3n[nH]c4cccnc34)cc21` [Example 2, N-(4-chloro-1-methyl-1H-indazol-6-yl)-1H-pyrazolo[4,3-b]pyridin-3-amine], the pEC50 was 7.54. In the case of `CCCCCn1nc(C)c2cc(Nc3n[nH]c4cccnc34)ccc21` [Example 91], the pEC50 was 7.72. `Cc1nn(CC(C)C)c2ccc(Nc3n[nH]c4cccnc34)cc12` [Example 112, N-(1-isobutyl-3-methyl-1H-indazol-5-yl)-1H-pyrazolo[4,3-b]pyridin-3-amine] gave a pEC50 of 7.02. `Cn1nc(C2CC2)c2ccc(Nc3n[nH]c4ncccc34)cc21` [Example 13, N-(3-cyclopropyl-1-methyl-1H-indazol-6-yl)-1H-pyrazolo[3,4-b]pyridin-3-amine] showed a pEC50 of 7.37. For `c1ccc2c(Nc3cnc4cnn(CC5CCC5)c4c3)n[nH]c2c1` [Example 27, 1-(cyclobutylmethyl)-N-(1H-indazol-3-yl)-1H-pyrazolo[4,3-b]pyridin-6-amine], the pEC50 was < 5.00. For `CCCCn1nc(C)c2cc(Nc3n[nH]c4cccnc34)ccc21` [Example 114, N-(1-butyl-3-methyl-1H-indazol-5-yl)-1H-pyrazolo[4,3-b]pyridin-3-amine], the pEC50 was 7.35. `Cc1cc(Cn2ncc3c(Nc4n[nH]c5cccnc45)cccc32)no1` [Example 32, N-(1-((5-methylisoxazol-3-yl)methyl)-1H-indazol-4-yl)-1H-pyrazolo[4,3-b]pyridin-3-amine] was tested, and the pEC50 was 6.24. Compound `Cn1ncc2ncc(Nc3n[nH]c4nccnc34)cc21` [Example 148, N-(1-methyl-1H-pyrazolo[4,3-b]pyridin-6-yl)-1H-pyrazolo[3,4-b]pyrazin-3-amine] has a pEC50 of 5.45. With `Cc1cc(Cn2ncc3cc(Nc4n[nH]c5nccnc45)ccc32)no1` [Example 104, N-(1-((5-methylisoxazol-3-yl)methyl)-1H-indazol-5-yl)-1H-pyrazolo[3,4-b]pyrazin-3-amine] the pEC50 was 7.08. `Cc1nn(CCC(C)C)c2ncc(Nc3n[nH]c4cccnc34)cc12` [Example 154, 1-isopentyl-3-methyl-N-(1H-pyrazolo[4,3-b]pyridin-3-yl)pyrazolo[3,4-b]pyridin-5-amine] showed a pEC50 of 6.77. For `Cn1ncc2c(Nc3n[nH]c4cccnc34)cccc21` [Example 33, N-(1-methyl-1H-indazol-4-yl)-1H-pyrazolo[4,3-b]pyridin-3-amine], the pEC50 was < 5.00. `Cn1cc2c(Cl)cc(Nc3n[nH]c4cccnc34)cc2n1` [Example 3, N-(4-chloro-2-methyl-2H-indazol-6-yl)-1H-pyrazolo[4,3-b]pyridin-3-amine] was tested, and the pEC50 was 6.28. Work on `O=C(O)Cn1nc(Cl)c2cc(Nc3n[nH]c4cccnc34)ccc21` [Example 278, 2-(5-((1H-pyrazolo[4,3-b]pyridin-3-yl)amino)-3-chloro-1H-indazol-1-yl)acetic acid] yielded a pEC50 of 5.81. Compound `Clc1cc(Nc2n[nH]c3cccnc23)cc2cnn(CC3CCC3)c12` [Example 65, N-(7-chloro-1-(cyclobutylmethyl)-1H-indazol-5-yl)-1H-pyrazolo[4,3-b]pyridin-3-amine] has a pEC50 of 7.12. `Cc1cc(COc2nn(C)c3cc(Nc4n[nH]c5cccnc45)ccc23)no1` [Example 183, N-(1-methyl-3-((5-methylisoxazol-3-yl)methoxy)-1H-indazol-6-yl)-1H-pyrazolo[4,3-b]pyridin-3-amine] gave a pEC50 of 6.65. `Cc1nn(CC2CCC2)c2ccc(Nc3n[nH]c4ncccc34)cc12` [Example 75, N-(1-(cyclobutylmethyl)-3-methyl-1H-indazol-5-yl)-1H-pyrazolo[3,4-b]pyridin-3-amine] was tested, and the pEC50 was 6.73. Compound `Cc1cc(Cn2ncc3cc(Nc4n[nH]c5cccnc45)cc(Cl)c32)no1` [Example 82, N-(7-chloro-1-((5-methylisoxazol-3-yl)methyl)-1H-indazol-5-yl)-1H-pyrazolo[4,3-b]pyridin-3-amine] has a pEC50 of 6.87. Work on `[2H]C([2H])(C)n1nc(C)c2cc(Nc3n[nH]c4nccnc34)ccc21` [Example 127, N-(1-(ethyl-1,1-d2)-3-methyl-1H-indazol-5-yl)-1H-pyrazolo[3,4-b]pyrazin-3-amine] yielded a pEC50 of 6.81. With `Cc1nn(C2CCCC2)c2ccc(Nc3n[nH]c4cccnc34)cc12` [Example 74, N-(1-cyclopentyl-3-methyl-1H-indazol-5-yl)-1H-pyrazolo[4,3-b]pyridin-3-amine] the pEC50 was 6.58. `Cc1nn(CC(F)(F)F)c2ccc(Nc3n[nH]c4cccnc34)cc12` [Example 116, N-(3-methyl-1-(2,2,2-trifluoroethyl)-1H-indazol-5-yl)-1H-pyrazolo[4,3-b]pyridin-3-amine] showed a pEC50 of 7.02. In the case of `Cc1cc(Cn2nc(C)c3cc(Nc4n[nH]c5cccnc45)ccc32)no1` [Example 76, N-(3-methyl-1-((5-methylisoxazol-3-yl)methyl)-1H-indazol-5-yl)-1H-pyrazolo[4,3-b]pyridin-3-amine], the pEC50 was 7.29. For `[2H]C([2H])([2H])n1nc(C2CC2)c2ccc(Nc3n[nH]c4ncccc34)cc21` [Example 43, N-(3-cyclopropyl-1-(methyl-d3)-1H-indazol-6-yl)-1H-pyrazolo[3,4-b]pyridin-3-amine], the pEC50 was 6.80. Work on `Cc1nn(CC2CCC2)c2ncc(Nc3n[nH]c4cccnc34)cc12` [Example 156, 1-(cyclobutylmethyl)-3-methyl-N-(1H-pyrazolo[4,3-b]pyridin-3-yl)pyrazolo[3,4-b]pyridin-5-amine] yielded a pEC50 of 6.96. `C=CCn1nc(C)c2cc(Nc3n[nH]c4cccnc34)ccc21` [Example 109, N-(1-allyl-3-methyl-1H-indazol-5-yl)-1H-pyrazolo[4,3-b]pyridin-3-amine] gave a pEC50 of 7.23. In the case of `Cc1nn(CC2CC2)c2ncc(Nc3n[nH]c4cccnc34)cc12` [Example 257, 1-(cyclopropylmethyl)-3-methyl-N-(1H-pyrazolo[4,3-b]pyridin-3-yl)pyrazolo[3,4-b]pyridin-5-amine], the pEC50 was < 5.00. `Cc1nn(Cc2noc3ccccc23)c2ccc(Nc3n[nH]c4cccnc34)cc12` [Example 92, N-(1-(benzo[d]isoxazol-3-ylmethyl)-3-methyl-1H-indazol-5-yl)-1H-pyrazolo[4,3-b]pyridin-3-amine] gave a pEC50 of 7.09.
